Counter-ions that a name gives are not always drawn.
How the values were obtained:
[1] = target: T1, Muscarinic acetylcholine receptor M2 (Rattus norvegicus, UniProt P10980)
T1 sequence (P10980 whole entry): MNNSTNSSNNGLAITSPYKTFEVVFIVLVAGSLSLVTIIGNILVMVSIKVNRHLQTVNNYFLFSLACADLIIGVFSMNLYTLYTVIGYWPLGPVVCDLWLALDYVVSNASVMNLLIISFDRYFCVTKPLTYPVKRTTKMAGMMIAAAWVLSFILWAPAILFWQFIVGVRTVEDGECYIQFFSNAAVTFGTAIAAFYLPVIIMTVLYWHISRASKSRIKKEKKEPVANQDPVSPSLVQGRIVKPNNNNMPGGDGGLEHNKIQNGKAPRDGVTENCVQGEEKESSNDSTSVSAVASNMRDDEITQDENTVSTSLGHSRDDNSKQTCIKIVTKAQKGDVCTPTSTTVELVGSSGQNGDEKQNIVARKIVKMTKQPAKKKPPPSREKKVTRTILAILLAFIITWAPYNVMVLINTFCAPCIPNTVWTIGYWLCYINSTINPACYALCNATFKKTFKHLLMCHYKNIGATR

[2] = target: Norepinephrine transporter (Rattus norvegicus, UniProt Q9JIA2)
[3] = target: 5-hydroxytryptamine receptor 2A (Rattus norvegicus, UniProt P14842)
[4] = target: D(2) dopamine receptor (Rattus norvegicus, UniProt P61169)
[5] = target: Sodium-dependent serotonin transporter (Rattus norvegicus, UniProt P31652)
[6] = target: T2, Alpha-1A adrenergic receptor (Rattus norvegicus, UniProt P43140)
T2 sequence (P43140 whole entry): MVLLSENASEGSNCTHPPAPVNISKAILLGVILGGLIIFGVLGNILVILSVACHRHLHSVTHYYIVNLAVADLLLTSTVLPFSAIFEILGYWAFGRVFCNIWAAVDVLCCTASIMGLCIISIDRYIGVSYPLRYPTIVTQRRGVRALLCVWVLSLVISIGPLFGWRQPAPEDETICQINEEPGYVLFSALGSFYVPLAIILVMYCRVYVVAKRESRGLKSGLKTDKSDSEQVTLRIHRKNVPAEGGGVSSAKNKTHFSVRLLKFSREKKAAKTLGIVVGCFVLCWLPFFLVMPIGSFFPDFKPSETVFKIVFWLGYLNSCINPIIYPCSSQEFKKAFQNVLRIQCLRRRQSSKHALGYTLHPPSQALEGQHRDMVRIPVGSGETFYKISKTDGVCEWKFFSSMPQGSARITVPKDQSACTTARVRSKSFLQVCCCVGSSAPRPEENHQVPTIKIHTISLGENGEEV

D(2) dopamine receptor, sequence (P61169 whole entry): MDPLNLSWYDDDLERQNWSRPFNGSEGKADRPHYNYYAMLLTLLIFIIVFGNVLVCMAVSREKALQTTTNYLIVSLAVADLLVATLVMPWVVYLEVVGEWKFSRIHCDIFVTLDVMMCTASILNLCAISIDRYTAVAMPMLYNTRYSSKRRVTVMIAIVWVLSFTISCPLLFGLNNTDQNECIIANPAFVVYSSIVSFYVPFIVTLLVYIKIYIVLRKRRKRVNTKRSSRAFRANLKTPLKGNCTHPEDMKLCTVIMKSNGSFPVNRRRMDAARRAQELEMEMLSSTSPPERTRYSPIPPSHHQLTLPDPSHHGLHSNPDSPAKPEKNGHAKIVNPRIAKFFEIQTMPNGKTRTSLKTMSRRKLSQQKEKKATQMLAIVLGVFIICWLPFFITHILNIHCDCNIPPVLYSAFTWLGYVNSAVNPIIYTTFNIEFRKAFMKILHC
5-hydroxytryptamine receptor 2A, sequence (P14842 whole entry): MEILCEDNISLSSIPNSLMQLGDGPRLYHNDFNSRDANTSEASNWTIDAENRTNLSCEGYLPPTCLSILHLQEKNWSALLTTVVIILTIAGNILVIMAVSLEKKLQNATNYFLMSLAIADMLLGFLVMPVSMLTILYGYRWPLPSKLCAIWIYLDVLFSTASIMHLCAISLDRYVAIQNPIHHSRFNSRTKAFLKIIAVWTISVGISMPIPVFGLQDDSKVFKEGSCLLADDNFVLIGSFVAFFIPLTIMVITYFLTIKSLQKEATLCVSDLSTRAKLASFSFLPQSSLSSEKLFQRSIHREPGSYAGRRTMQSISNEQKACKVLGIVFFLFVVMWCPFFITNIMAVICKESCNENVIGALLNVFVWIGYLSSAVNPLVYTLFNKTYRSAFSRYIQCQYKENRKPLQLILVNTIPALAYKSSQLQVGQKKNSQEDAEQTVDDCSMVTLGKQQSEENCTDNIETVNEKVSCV
Sodium-dependent serotonin transporter, sequence (P31652 whole entry): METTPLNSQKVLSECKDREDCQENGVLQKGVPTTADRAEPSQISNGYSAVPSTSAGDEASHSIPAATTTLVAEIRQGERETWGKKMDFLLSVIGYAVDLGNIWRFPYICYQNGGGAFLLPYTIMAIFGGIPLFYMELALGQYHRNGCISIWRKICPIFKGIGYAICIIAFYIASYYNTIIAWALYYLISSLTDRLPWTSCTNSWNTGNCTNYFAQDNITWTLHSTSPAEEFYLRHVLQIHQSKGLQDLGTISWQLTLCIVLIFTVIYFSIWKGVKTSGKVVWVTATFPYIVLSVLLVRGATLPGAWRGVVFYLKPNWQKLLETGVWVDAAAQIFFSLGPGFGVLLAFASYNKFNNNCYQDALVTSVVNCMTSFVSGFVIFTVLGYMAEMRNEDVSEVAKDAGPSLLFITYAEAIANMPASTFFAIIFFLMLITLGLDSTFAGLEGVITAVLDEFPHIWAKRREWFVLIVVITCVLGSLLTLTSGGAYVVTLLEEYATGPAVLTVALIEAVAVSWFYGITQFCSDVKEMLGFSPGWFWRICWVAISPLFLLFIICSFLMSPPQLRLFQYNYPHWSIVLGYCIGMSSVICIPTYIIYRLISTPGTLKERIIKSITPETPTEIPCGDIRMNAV

| SMILES | Ki [1] [nM] | Ki [2] [nM] | Ki [3] [nM] | Ki [4] [nM] | Ki [5] [nM] | Ki [6] [nM] |
| --- | --- | --- | --- | --- | --- | --- |
| CNCCCC1(c2ccccc2)SC(C)(C)c2ccccc21 (stereo unspecified) [Talsupram] | 1300 | 0.79 | 1600 | > 10000 | 850 | > 10000 |
| CN(C)CCCC1(c2ccc(F)cc2)OCc2cc(C#N)ccc21 (stereo unspecified) [CITALOPRAM HYDROBROMIDE] | 4800 | – | – | > 10000 | – | 1600 |
| CNCCC(Oc1ccccc1OC)c1ccccc1 (stereo unspecified) [3-(2-methoxyphenoxy)-N-methyl-3-phenylpropan-1-amine] | 5000 | – | 620 | > 10000 | – | 4300 |
| CN1Cc2c(N)cccc2[C@H](c2ccccc2)C1 [(+/-)-2-Methyl-4-phenyl-1,2,3,4-tetrahydro-isoquinolin-8-ylamine] | > 10000 | 6.6 | – | > 10000 | – | 1200 |
| CN[C@H]1C[C@H](c2ccc(Cl)c(Cl)c2)c2ccccc21 [CAS_96850-13-4] | > 10000 | – | – | > 10000 | – | 740 |
| CN(C)C[C@@H]1C2CCC(CC2)[C@@H]1c1ccc(Cl)c(Cl)c1 | > 10000 | 5.4 | > 10000 | 570 | 51 | > 10000 |
| Fc1ccc(C(OCCN2CCN(C/C=C/c3ccccc3)CC2)c2ccc(F)cc2)cc1 | 2200 | 13 | 3400 | 810 | – | 2200 |
| COc1ccc2c(c1)CN(C)CC2c1ccc(Cl)c(Cl)c1 (stereo unspecified) | 3700 | 2.3 | 550 | > 10000 | – | 480 |
| CC(NC(C)(C)C)C(=O)c1cccc(Cl)c1 (stereo unspecified) [BUPROPION HYDROCHLORIDE] | > 10000 | 1500 | – | > 10000 | – | > 10000 |
| C(=C\c1ccccc1)/CN1CCN(CCOC(c2ccccc2)c2ccccc2)CC1 [CAS_67469-75-4] | 900 | 29 | 1000 | 2500 | 1900 | 270 |

Reference: BindingDB's records for doi:10.1111/j.1471-4159.1985.tb08803.x (Lundbeck Ais, 1985)
